Measurements: patent US9005905B2, “Method of identifying transmembrane protein-interacting compounds” (Omeros Corporation, priority 2002, dated 2015)
Like-named read-outs stand apart in the source and are kept apart here.

What was measured:
[1] = target: mu and delta opioid receptors (Homo sapiens, UniProt P35372+P41143); details: cited from earlier work
[2] = target: D1-NLS2-GFP (Homo sapiens, UniProt P21728, A335P/A340K/D336K/F337K/F341V/K339R/R338K); details: 1 micromolar, 48 hrs
Text: Nuclei were visualised with DsRed-nuc (2 micrograms). Cells were examined by confocal microscopy.

[3] = target: T1, D1-IC1-NLS-GFP (Homo sapiens, UniProt P21728, H53R/I49K/R50K/R52K); assay: D1-IC1-NLS-GFP trafficking, HEK cells; format: cell-based; details: 1 micromolar, 48 hours
T1 construct: expressed in transfected cells; host or cells: HEK cells
Text: (§1) Nuclei were visualised with DsRED-NUC (2 micrograms). The cells were examined by confocal microscopy.

[4] = target: T2, D1-NLS-GFP (Homo sapiens, UniProt P21728, A340R/D336K/F337K/R338F); assay: D1-NLS-GFP (with D1-WT) translocation, antagonist dose response, HEK cells, confocal microscopy; format: cell-based; details: 48 hours
T2 construct: expressed in transfected cells; host or cells: HEK cells (HEK293T)
Description: Test compounds were prepared in a stock solution of 1 millimolar concentration and diluted in growth medium to achieve a final concentration ranging between 10 nanomolar and 10 micromolar when added to cell plates. Fresh compound-containing medium was added to cells at 6 hours, 22 hours, 30 hours and 42 hours after transfection.
Cells were visualised using the LSM510 Zeiss confocal laser microscope. GFP was visualised following excitation with the argon laser at 488 nm excitation wavelength and the DsRed was visualised following excitation with the helium neon laser at 543 nm wavelength for excitation. The confocal images were captured on disk and evaluated. In each experiment, multiple fields of cells (n=6-8 with 30-90 cells each) were counted and evaluated for localisation of the signal on the cell surface, in the cytoplasm and in the nucleus.
HEK cells were transfected with DNA encoding D1-NLS-GFP (2 micrograms), and D1-WT (6 micrograms) for 48 hours. […] The medium containing antagonist was changed at 6, 22, 30 and 42 hours after transfection. Control cells received no antagonist treatment.

[5] = target: D1-IC3-NLS-GFP (Homo sapiens, UniProt P21728, M262K/S263K); assay: D1-IC3-NLS-GFP trafficking, HEK cells; format: cell-based; details: 10 micromolar to 100 nanomolar (four concentrations), 48 hours
Text: as §1

[6] = target: T3, HA-D1-NLS (Homo sapiens, UniProt P21728, A340R/D336K/F337K/R338F); assay: HA-D1-NLS cell surface receptor detected by fluorometry; format: cell-based; details: removal of SCH 23390 (0.5 micromolar) for the last hour, no agonist
T3 construct: MGYPYDVPDYARTLNTSAMDGTGLVV; expressed in transfected cells; host or cells: HEK cells
Description: Wells in a multi-well plate were coated with poly-L-ornithine and then plated with 50,000 cells per well. […] Following this, the cells were fixed with paraformaldehyde, and cell surface receptors were detected with a rat anti-HA antibody and then a goat anti-rat antibody conjugated to FITC. The fluorescent signal was detected by fluorometry (Cytofluor).
Wells in a multi-well plate were coated with poly-L-ornithine and then plated with 50,000 cells per well. […] Following this, the cells were fixed with paraformaldehyde, and cell surface receptors were detected with a rat anti-HA antibody and then a goat anti-rat antibody conjugated to FITC. The fluorescent signal was detected by fluorometry (Cytofluor). The results are the average of five wells per experimental condition.
HEK cells were transfected with HA-D1-NLS in a multi-well plate were coated with poly-L-ornithine at a concentration of 50,000 cells per well. […] Following this, the cells were fixed with paraformaldehyde, and cell surface receptors were detected with a rat anti-HA antibody and then a goat anti-rat antibody conjugated to FITC. The fluorescent signal was detected by fluorometry (Cytofluor). The results are the average of five wells per experimental condition.

[7] = target: T4, D1-2NLS-RFP (Homo sapiens, UniProt P21728, A340R/A406K/D336K/E404K/E405R/F337K/R338F); assay: D1-2NLS-RFP trafficking, HEK cells; format: cell-based; details: 10 μM, 48 hours
T4 construct: expressed in transfected cells; host or cells: HEK cells
Description: By modifying the construct encoding D1-NLS-RFP, a DNA construct (D1-2NLS-RFP) was created to introduce a second NLS into the carboxyl tail of the dopamine D1 receptor by replacing the KKEEA (SEQ ID NO:171) sequence of the wild type D1 dopamine receptor with the NLS, KKKRK (SEQ ID NO:177).
HEK cells were transfected with DNA encoding this construct (D1-2NLS-RFP), and treated at intervals with the antagonist SCH-23390 (10 μM) as previously described. […] Control cells received no antagonist.

[8] = target: T5, DAT-NLS-RFP (Homo sapiens, UniProt Q01959, C581K/S582R/Y578K); assay: DAT-NLS-RFP trafficking to the nucleus, HEK cells; format: cell-based; details: 10 micromolar, 48 hours
T5 construct: The full length cDNA encoding the human dopamine transporter (hDAT) was amplified using DAT in pcDNA3 as template; expressed in transfected cells; host or cells: HEK cells
Description: HEK cells were transfected with a DNA construct encoding DAT-NLS-RFP (2 micrograms) and incubated for 48 hours. At 6, 22, 30 and 42 hours after transfection, the cells were treated with cocaine or amphetamine (final concentration 10 micromolar), or left untreated. The cells were examined by confocal microscopy.

[9] = target: DAT-NLS-GFP (Homo sapiens, UniProt Q01959, C581K/S582R/Y578K); assay: DAT-NLS-GFP translocation, HEK cells; format: cell-based; details: 1 micromolar, 48 hours
Description: HEK cells were transfected with a DNA construct encoding DAT-NLS-GFP (2 micrograms) and incubated for 48 hours. […] The cells were examined by confocal microscopy.
HEK cells were transfected with a construct encoding DAT-NLS-GFP (2 micrograms) and incubated for 48 hours. […] The cells were examined by confocal microscopy.
Control HEK cells were transfected with DAT-NLS-GFP incubated for 48 hours and not treated with drug.

[10] = target: T6, 5HT1B-NLS-GFP (Homo sapiens, UniProt P28222, D375K/E374K/Q378R); assay: 5HT1B-NLS-GFP translocation, HEK cells; format: cell-based; details: 10 micromolar, 48 hours
T6 construct: expressed in transfected cells; host or cells: HEK cells
Description: HEK cells were transfected with a DNA construct encoding the serotonin 5HT1B-NLS-GFP (2 micrograms). The cells were transfected with Ds-red-NUC to verify the localisation of the nucleus (1 microgram). Cells were treated with methysergide (10 micromolar), a serotonin receptor antagonist. […] Control cells received no antagonist. The cells were examined by confocal microscopy.

[11] = target: T7, Cys-LT2-NLS-GFP (Homo sapiens, UniProt Q9NS75, D314R/E310K/N311K); assay: Cys-LT2-NLS-GFP translocation, HEK cells; format: cell-based; details: 10 micromolar
T7 construct: expressed in transfected cells; host or cells: HEK cells
T7 sequence (Q9NS75 1-346 E310K/N311K/D314R): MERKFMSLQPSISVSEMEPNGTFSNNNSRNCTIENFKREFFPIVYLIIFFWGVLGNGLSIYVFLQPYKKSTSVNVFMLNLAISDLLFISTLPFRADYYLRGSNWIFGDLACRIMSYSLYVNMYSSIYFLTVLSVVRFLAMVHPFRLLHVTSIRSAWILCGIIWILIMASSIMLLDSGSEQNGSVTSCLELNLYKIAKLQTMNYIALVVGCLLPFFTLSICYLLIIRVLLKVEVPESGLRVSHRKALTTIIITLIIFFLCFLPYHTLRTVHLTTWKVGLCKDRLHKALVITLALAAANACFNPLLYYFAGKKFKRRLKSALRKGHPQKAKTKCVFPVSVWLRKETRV
Description: The DNA encoding Cys-LT2-NLS-GFP (3 micrograms) was used to transfect HEK cells. These cells were treated with the cysteinyl leukotriene receptor antagonist, montelukast (10 micromolar). […] Control cells received no antagonist. The cells were examined by confocal microscopy.

[12] = target: T2, D1-NLS-GFP; assay: D1-NLS-GFP translocation, long-term agonist treatment, HEK cells; format: cell-based; details: agonist 10 micromolar, 48 hours
Description: The cells were examined by confocal microscopy.
HEK cells were transfected with a DNA construct encoding D1-NLS-GFP (1.5 micrograms of DNA), and incubated with the agonist pergolide (10 micromolar) for 48 hours. […] The cells were examined by confocal microscopy.
Control HEK cells were transfected with a DNA construct encoding D1-NLS-GFP (1.5 micrograms of DNA) and left untreated.

[13] = target: T8, D2-NLS-GFP (Homo sapiens, UniProt P14416, E432K/I431K/K435R/R434K); assay: D2-NLS-GFP translocation, HEK cells; format: cell-based
T8 construct: expressed in transfected cells; host or cells: HEK cells
Description: At 6, 22, 30 and 42 hours after transfection, the cells were treated with the antagonists. Cells were incubated 48 hrs after drug treatment and examined by confocal microscopy.

[14] = target: M1-NLS-GFP (Homo sapiens, UniProt P11229, A424K/D427R/R426K); details: 10 micromolar, 48 hours
Description: These cells were treated with iprotropium bromide (10 micromolar). The medium containing antagonist was replaced at 6, 22, 30 and 42 hours after transfection. Control cells received no antagonist treatment. The cells were examined by confocal microscopy.

T5 sequence (Q01959 whole entry Y578K/C581K/S582R): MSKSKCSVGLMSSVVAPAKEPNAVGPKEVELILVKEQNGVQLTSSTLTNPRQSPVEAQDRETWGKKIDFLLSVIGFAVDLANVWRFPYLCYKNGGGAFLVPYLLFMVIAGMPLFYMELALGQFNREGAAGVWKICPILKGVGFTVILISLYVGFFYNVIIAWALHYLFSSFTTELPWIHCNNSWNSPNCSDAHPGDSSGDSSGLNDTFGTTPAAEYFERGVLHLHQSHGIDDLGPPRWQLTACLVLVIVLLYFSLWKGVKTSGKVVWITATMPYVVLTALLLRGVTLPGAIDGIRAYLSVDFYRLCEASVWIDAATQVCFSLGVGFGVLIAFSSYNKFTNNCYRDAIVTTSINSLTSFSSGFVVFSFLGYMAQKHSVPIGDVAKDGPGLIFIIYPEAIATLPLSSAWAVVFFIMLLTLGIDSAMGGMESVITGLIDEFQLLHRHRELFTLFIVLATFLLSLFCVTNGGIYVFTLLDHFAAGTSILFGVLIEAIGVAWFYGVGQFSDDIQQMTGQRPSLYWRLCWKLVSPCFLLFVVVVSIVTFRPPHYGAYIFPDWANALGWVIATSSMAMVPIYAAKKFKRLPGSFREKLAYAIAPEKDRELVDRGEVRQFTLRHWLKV
T2 sequence (P21728 whole entry D336K/F337K/R338F/A340R): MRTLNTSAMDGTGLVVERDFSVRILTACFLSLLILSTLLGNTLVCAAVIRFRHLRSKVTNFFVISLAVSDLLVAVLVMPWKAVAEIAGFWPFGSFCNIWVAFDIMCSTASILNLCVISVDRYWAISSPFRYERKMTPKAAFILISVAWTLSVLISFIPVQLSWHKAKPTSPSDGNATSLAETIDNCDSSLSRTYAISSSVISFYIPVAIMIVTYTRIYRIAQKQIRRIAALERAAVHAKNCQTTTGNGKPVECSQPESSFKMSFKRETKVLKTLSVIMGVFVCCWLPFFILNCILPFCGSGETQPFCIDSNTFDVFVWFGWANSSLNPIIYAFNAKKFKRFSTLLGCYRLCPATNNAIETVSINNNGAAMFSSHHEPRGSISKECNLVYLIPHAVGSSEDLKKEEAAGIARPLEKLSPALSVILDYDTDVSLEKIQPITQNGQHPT
Sequence of M1-NLS-GFP (P11229 whole entry A424K/R426K/D427R): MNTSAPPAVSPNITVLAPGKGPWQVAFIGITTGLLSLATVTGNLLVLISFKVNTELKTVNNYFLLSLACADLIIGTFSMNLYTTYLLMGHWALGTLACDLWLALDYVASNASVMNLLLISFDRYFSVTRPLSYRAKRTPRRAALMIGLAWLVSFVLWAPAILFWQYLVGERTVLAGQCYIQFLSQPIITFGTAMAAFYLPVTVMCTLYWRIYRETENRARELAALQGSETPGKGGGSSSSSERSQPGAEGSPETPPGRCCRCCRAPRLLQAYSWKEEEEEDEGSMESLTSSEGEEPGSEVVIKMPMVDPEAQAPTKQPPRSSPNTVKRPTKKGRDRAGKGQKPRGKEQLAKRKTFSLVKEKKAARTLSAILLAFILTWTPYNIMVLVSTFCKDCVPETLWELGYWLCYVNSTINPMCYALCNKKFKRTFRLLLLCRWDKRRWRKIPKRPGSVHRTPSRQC
T8 sequence (P14416 whole entry I431K/E432K/R434K/K435R): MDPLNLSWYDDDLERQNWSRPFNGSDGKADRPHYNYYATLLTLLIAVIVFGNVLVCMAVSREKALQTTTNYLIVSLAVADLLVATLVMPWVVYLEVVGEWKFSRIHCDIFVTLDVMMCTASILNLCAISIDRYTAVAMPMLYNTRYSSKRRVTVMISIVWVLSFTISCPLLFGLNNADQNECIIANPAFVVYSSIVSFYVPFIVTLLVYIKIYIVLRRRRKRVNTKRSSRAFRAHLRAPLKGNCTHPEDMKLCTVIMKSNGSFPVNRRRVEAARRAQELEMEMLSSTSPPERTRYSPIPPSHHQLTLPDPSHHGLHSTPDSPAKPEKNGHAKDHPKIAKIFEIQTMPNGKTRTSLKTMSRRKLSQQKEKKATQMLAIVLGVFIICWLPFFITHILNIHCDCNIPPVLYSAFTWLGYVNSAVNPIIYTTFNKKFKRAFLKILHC
Sequence of DAT-NLS-GFP (Q01959 whole entry Y578K/C581K/S582R): as the sequence (Q01959 whole entry Y578K/C581K/S582R) above
T4 sequence (P21728 whole entry D336K/F337K/R338F/A340R/E404K/E405R/A406K): as the sequence (P21728 whole entry D336K/F337K/R338F/A340R) above, with E404K, E405R, A406K counted along it
Sequence of D1-NLS2-GFP (P21728 9-446 A335P/D336K/F337K/R338K/K339R/A340K/F341V limits assumed): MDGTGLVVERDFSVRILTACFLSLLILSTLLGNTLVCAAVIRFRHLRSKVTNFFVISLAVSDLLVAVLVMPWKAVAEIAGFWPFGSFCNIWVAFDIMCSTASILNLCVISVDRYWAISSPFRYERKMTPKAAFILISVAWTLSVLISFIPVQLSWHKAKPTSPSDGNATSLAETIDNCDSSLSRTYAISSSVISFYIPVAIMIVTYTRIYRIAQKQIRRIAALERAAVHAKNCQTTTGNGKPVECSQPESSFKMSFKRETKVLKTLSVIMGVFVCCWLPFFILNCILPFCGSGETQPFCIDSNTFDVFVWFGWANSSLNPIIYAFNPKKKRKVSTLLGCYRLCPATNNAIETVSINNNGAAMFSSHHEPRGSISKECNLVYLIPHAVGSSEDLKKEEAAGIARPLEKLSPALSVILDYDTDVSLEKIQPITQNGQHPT
T6 sequence (P28222 whole entry E374K/D375K/Q378R): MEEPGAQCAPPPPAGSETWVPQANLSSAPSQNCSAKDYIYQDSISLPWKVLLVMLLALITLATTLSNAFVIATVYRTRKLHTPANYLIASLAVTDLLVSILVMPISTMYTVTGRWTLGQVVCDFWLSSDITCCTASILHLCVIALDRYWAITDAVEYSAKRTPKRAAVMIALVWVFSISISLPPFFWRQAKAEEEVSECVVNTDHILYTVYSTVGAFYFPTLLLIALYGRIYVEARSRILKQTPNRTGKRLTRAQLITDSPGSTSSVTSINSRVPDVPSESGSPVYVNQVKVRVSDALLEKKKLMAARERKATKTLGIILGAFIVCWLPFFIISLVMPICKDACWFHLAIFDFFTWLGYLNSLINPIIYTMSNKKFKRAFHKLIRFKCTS
T1 sequence (P21728 9-446 I49K/R50K/R52K/H53R limits assumed): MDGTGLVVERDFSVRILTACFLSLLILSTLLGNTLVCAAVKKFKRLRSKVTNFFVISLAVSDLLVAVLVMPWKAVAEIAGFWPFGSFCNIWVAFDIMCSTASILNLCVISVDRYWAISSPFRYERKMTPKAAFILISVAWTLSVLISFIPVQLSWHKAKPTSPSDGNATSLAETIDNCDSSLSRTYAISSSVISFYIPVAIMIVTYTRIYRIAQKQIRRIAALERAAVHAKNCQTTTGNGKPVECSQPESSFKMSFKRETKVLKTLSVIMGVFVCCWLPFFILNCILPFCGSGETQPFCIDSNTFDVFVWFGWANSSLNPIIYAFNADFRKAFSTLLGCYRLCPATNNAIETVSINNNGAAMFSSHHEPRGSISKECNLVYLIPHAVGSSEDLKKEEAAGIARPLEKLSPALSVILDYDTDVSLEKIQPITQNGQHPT
Sequence of D1-IC3-NLS-GFP (P21728 9-446 M262K/S263K limits assumed): as the sequence (P21728 9-446 I49K/R50K/R52K/H53R limits assumed) above, with K41I, K42R, K44R, R45H, M254K, S255K counted along it
Sequence of mu and delta opioid receptors (P35372 whole entry): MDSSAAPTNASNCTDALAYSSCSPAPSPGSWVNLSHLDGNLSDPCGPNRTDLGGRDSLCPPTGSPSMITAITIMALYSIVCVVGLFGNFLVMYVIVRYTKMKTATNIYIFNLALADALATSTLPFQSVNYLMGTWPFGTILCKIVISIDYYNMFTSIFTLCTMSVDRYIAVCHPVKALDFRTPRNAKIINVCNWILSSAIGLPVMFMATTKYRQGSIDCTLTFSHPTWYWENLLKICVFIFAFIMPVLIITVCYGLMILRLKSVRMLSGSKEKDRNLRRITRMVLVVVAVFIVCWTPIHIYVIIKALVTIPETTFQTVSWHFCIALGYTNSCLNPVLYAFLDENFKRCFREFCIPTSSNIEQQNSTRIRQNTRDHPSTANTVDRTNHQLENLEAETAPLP
Sequence of mu and delta opioid receptors (P41143 whole entry): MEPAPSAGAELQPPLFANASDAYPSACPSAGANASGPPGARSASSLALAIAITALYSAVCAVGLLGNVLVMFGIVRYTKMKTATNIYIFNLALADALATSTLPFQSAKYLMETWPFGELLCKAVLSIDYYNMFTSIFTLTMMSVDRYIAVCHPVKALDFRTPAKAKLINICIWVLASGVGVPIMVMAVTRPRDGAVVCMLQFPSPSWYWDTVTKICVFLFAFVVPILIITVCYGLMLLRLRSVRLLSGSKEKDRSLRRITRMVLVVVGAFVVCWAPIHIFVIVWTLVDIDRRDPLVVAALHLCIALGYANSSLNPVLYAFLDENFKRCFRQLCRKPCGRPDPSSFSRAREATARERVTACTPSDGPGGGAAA
T3 sequence (P21728 whole entry D336K/F337K/R338F/A340R): as the sequence (P21728 whole entry D336K/F337K/R338F/A340R) above

## C[C@@H](NC(=O)[C@@H](N)Cc1ccc(O)cc1)C(=O)NCC(=O)N(C)[C@@H](Cc1ccccc1)C(=O)NCCO [DAMGO]
[1]
  potency at co-expressed versus individual receptors: reduced potency

## CN1CCc2cc(Cl)c(O)cc2[C@@H](c2ccccc2)C1 [SCH-23390]
[2]
  % cells with receptor expression in the nucleus: 22%
  % cells with receptor on the cell surface or in cytoplasm: 78%
[3]
  % cells with receptor in the nucleus: 23%
  % cells with receptor on the cell surface or in the cytoplasm: 77%
[4]; 0.2 μM
  % cells receptor in nucleus: 19%
  % cells receptor on surface: 32%
  % cells receptor on surface and in nucleus: 49%
[4]; 0.5 μM
  % cells receptor in nucleus: 20%
  % cells receptor on surface: 36%
  % cells receptor on surface and in nucleus: 44%
[4]; 1 μM
  % cells receptor in nucleus: 15%
  % cells receptor on surface: 39%
  % cells receptor on surface and in nucleus: 46%
[4]; 5 μM
  % cells receptor in nucleus: 12%
  % cells receptor on surface: 46%
  % cells receptor on surface and in nucleus: 42%
[4]; 10 μM, HEK cells
  % cells receptor on surface: 58%
  % cells receptor on surface and in nucleus: 32%
[5]
  % cells with receptor in the nucleus: 84%
  % cells with receptor on the surface: 15%
[6]
  loss of HA-D1-NLS receptors from the cell surface: 33%
[7]
  % cells with cell surface label: 51%
  % cells with nuclear label: 49%

## CC(N)Cc1ccccc1 (stereo not drawn) [amphetamine]
[8]
  % cells with cell surface or cytoplasmic expression of DAT-NLS-RFP: 34%
  % cells with transporter expression in the nucleus and cytoplasm: 66%
  effect on the trafficking of the DAT-NLS-RFP to the nucleus: no inhibitory effect

## COC(=O)[C@H]1[C@@H](OC(=O)c2ccccc2)C[C@@H]2CC[C@H]1N2C [cocaine]
[8]
  % cells with cell surface or cytoplasmic expression of DAT-NLS-RFP: 75%
  % cells with transporter expression in the nucleus and cytoplasm: 25%

## OC1(c2ccc(Cl)cc2)c2ccccc2C2=NCCN21 (stereo not drawn) [mazindol]
[9]
  % cells with transporter expression in the nucleus and cytoplasm: 39%
  % cells with transporter expression on the cell surface and in cytoplasm: 61%

## CC[C@@H](CO)NC(=O)[C@@H]1C=C2c3cccc4c3c(cn4C)C[C@H]2N(C)C1 [methysergide]
[10]
  % cells with cell surface localisation: 62%
  % cells with receptor in the nucleus: 25%

## CC(C)(O)c1ccccc1CC[C@@H](SCC1(CC(=O)O)CC1)c1cccc(/C=C/c2ccc3ccc(Cl)cc3n2)c1 [montelukast]
[11]
  % cells with cell surface expression of receptor: 90%
  % cells with nuclear localisation of the receptor: 10%

## CCCN1C[C@H](CSC)C[C@@H]2c3cccc4[nH]cc(c34)C[C@H]21 [perglolide, pergolide]
[12]
  % cells with receptor expression at the cell surface: 59%

## CCN1CCC[C@H]1CNC(=O)c1c(O)c(Cl)cc(Cl)c1OC [raclopride]
[13]; 10 micromolar, 48 hrs
  % cells with cell surface labelling: 80%
  % cells with cytoplasmic label: 15%
  % cells with nuclear labelling: 5%

## (+)butaclamol
[13]
  % cells with cell surface labelling: 90%
  % cells with cytoplasmic label: 5%
  % cells with nuclear labelling: 5%

## iprotropium bromide
[14]
  % cells with receptor expression in the cytoplasm only: 17%
  % cells with receptor expression in the nucleus: 11%
  % cells with receptor expression on the cell surface: 72%
